Read-outs that look alike come from different tables or passages of the source.
Experiments:
2′-deoxyguanosine (dG) [1] = test: 8OHdG produced from added dG, standing at room temperature or UV irradiation (Examples 1-7); details: for evaluation in words: oxidation induction or antioxidant ability toward dG: conclusions of Examples 2-7;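 as to all read-outs here: Cell-free test: dG in test solution, held at room temperature or exposed to 254 nm UV, then 8OHdG quantified by HPLC with electrochemical detection, compared against dG in ultrapure water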
Description: Separately, the amount of 8OHdG after an ultrapure water solution of dG is left to stand under the same conditions as above for a predetermined time is measured (this value is defined as B). If A is greater than B, the test substance is evaluated to have oxidation induction ability and conversely if A is smaller than B, the test substance is evaluated to have antioxidant ability. In either case, it is judged that the greater the difference is, the greater degree of oxidation induction ability or antioxidant capability the test substance has.
Then, 20 μl of 200 μg/ml dG (dissolved in ultrapure water) was added to each well and one of the plates was left to stand as it was at room temperature for 90 minutes and the other plate was irradiated with UV light (254 nm, 860 μW/cm^2) for 90 minutes in a UV light irradiation box. […] Subsequently, nucleosides in the both were quantified by use of the UV light absorption analyzer connected to the HPLC and the electrochemical detector.
Solutions of predetermined concentrations of vitamin C (VC), vitamin E (VE), catechin (Cate) and tannic acid (Tan) were prepared and 180 μl portions were injected into each well of two 99-well plastic plates. Then, 20 μl of 200 μg/ml dG (dissolved in ultrapure water) was added to each well and one of the plates was left to stand as it was at room temperature for 90 minutes and the other plate was irradiated with UV light (254 nm, 860 μW/cm^2) for 90 minutes in a UV light irradiation box.
Then, 20 μl of 200 μg/ml dG (dissolved in ultrapure water) was added to each well and one of the plates was left to stand as it was at room temperature for 90 minutes and another plate was left to stand similarly at room temperature for 24 hours. The remaining three plates were irradiated with UV light (254 nm, 860 μW/cm^2) for 60 minutes, 90 minutes and 120 minutes, respectively, in a UV light irradiation box.
Solutions of predetermined concentrations of glucose (Glu), raffinose (Raffi) and sucrose (Suc) were prepared and 180 μl portions thereof were injected into each well of four 99-well plastic plates. Then, 20 μl of 200 μg/ml dG (dissolved in ultrapure water) was added to each well and one of the plates was left to stand as it was at room temperature for 90 minutes. The remaining three plates were irradiated with UV light (254 nm, 860 μW/cm^2) for 60 minutes, 90 minutes and 120 minutes, respectively, in a UV light irradiation box.
Then, 20 μl of 200 μg/ml dG (dissolved in ultrapure water) was added to each well and one of the plates was left to stand as it was at room temperature for 90 minutes and the other plate was irradiated with UV light (254 nm, 860 μW/cm^2) for 90 minutes in a UV light irradiation box.
Solutions of various concentrations of uric acid (dissolving fluid: distilled water+0.025% FBS) were prepared and 180 μl portions thereof were injected into each well of two 99-well plastic plates. Then, 20 μl of 200 μg/ml dG (dissolved in ultrapure water) was added to each well and one of the plates was left to stand as it was at room temperature for 90 minutes and the other plate was irradiated with UV light (254 nm, 860 μW/cm^2) for 90 minutes in a UV light irradiation box.

2′-deoxyguanosine (dG) [2] = test: 8OHdG produced from dG in presence of potassium bromate as active oxygen generator (Example 8); type: biochemical; details: with KBrO3, ultrapure water 2.699
2′-deoxyguanosine (dG) [3] = details: KBrO3 30 minutes; for dG: pure water ctrl 1.067; for 8OHdG/dG × 10^−3: pure water ctrl 3.542; for 8OHdG × 10^−3: pure water ctrl 3.779; for Relative initial magnification: pure water ctrl 13.47
[4] = reported; cited from earlier work
2′-deoxyguanosine (dG) [5] = test: 8OHdG produced from dG with test substance and coexisting bisphenol A, standing or UV (Example 9); type: biochemical
Description: 170 μl portions of ultrapure water and predetermined concentrations of vitamin C (VC), vitamin E (VE), and glucose (Glu) as test substance were added to each well of two […] plastic plates and, as additional solution, 20 μl of ultrapure water or predetermined concentration of bisphenol A (BPA) were injected into each well.

[6] = 5%, Table 3, ultrapure water 0.382
[7] = 20%, Table 3, ultrapure water 0.382
[8] = test substance 0.001%, additional solution ultrapure water

Question: Which results are given for `CO` [Meth, methanol]?
Answer: 8OHdG concentration, UV irradiation 60 minutes (2′-deoxyguanosine (dG) [1]; 5%, Table 3, ultrapure water 0.231): 0.181 ng/mL; 8OHdG concentration, Standing 24 hours (2′-deoxyguanosine (dG) [1]; [6]): 0.336 ng/mL; 8OHdG concentration, UV irradiation 90 minutes (2′-deoxyguanosine (dG) [1]; [6]): 0.209 ng/mL; 8OHdG concentration, UV irradiation 120 minutes (2′-deoxyguanosine (dG) [1]; 5%, Table 3, ultrapure water 0.645): 0.332 ng/mL; 8OHdG concentration, UV irradiation 60 minutes (2′-deoxyguanosine (dG) [1]; 20%, Table 3, ultrapure water 0.231): 0.324 ng/mL; 8OHdG concentration, Standing 24 hours (2′-deoxyguanosine (dG) [1]; [7]): 0.274 ng/mL; 8OHdG concentration, UV irradiation 90 minutes (2′-deoxyguanosine (dG) [1]; [7]): 0.395 ng/mL; 8OHdG concentration, UV irradiation 120 minutes (2′-deoxyguanosine (dG) [1]; 20%, Table 3, ultrapure water 0.645): 0.518 ng/mL; evaluation in words: oxidation induction or antioxidant ability toward dG (2′-deoxyguanosine (dG) [1]): potent antioxidant ability; 8OHdG concentration, 30 Minutes' standing (2′-deoxyguanosine (dG) [2]; 1%): 2.059 ng/mL; 8OHdG concentration, 30 Minutes' standing (2′-deoxyguanosine (dG) [2]; 2.5%): 1.685 ng/mL; dG (2′-deoxyguanosine (dG) [3]; 1%): 1.04 VS; 8OHdG/dG × 10^−3 (2′-deoxyguanosine (dG) [3]; 1%): 2.771 × 10^−3; dG (2′-deoxyguanosine (dG) [3]; 5%): 1.054 VS; 8OHdG/dG × 10^−3 (2′-deoxyguanosine (dG) [3]; 5%): 2.238 × 10^−3; 8OHdG × 10^−3 (2′-deoxyguanosine (dG) [3]; 5%): 2.359 mVs

Question: Which “8OHdG concentration, 90 Minutes' standing” value (2′-deoxyguanosine (dG) [1]; 0.0005 ppm, Table 1, ultrapure water 0.267) does the source give for `Oc1c(Cl)c(Cl)c(Cl)c(Cl)c1Cl` [PCP, pentachlorophenol] here?
Answer: The value was 0.260 ng/mL.

Question: What about the “8OHdG concentration, 90 Minutes' UV irradiation” value (2′-deoxyguanosine (dG) [1]; 0.0005 ppm, Table 1, ultrapure water 0.529) of the same compound?
Answer: Its value is 0.585 ng/mL.

Question: What about the “8OHdG concentration, 90 Minutes' standing” value (2′-deoxyguanosine (dG) [1]; 0.005 ppm, Table 1, ultrapure water 0.267) of the same compound?
Answer: Its value is 0.236 ng/mL.

Question: What about the “8OHdG concentration, 90 Minutes' UV irradiation” value (2′-deoxyguanosine (dG) [1]; 0.005 ppm, Table 1, ultrapure water 0.529) of the same compound?
Answer: Its value is 0.451 ng/mL.

Question: What about the “8OHdG concentration, 90 Minutes' standing” value (2′-deoxyguanosine (dG) [1]; 0.05 ppm, Table 1, ultrapure water 0.267) of the same compound?
Answer: Its value is 0.285 ng/mL.

Question: What about the “8OHdG concentration, 90 Minutes' UV irradiation” value (2′-deoxyguanosine (dG) [1]; 0.05 ppm, Table 1, ultrapure water 0.529) of the same compound?
Answer: Its value is 0.431 ng/mL.

Question: What about the “8OHdG concentration, 90 Minutes' standing” value (2′-deoxyguanosine (dG) [1]; 0.5 ppm, Table 1, ultrapure water 0.267) of the same compound?
Answer: The value was 0.282 ng/mL.

Question: And the “8OHdG concentration, 90 Minutes' UV irradiation” value (2′-deoxyguanosine (dG) [1]; 0.5 ppm, Table 1, ultrapure water 0.529)?
Answer: The value was 0.396 ng/mL.

Question: What about the “8OHdG concentration, 90 Minutes' standing” value (2′-deoxyguanosine (dG) [1]; 5 ppm, Table 1, ultrapure water 0.267) of the same compound?
Answer: Its value is 0.340 ng/mL.

Question: What about the “8OHdG concentration, 90 Minutes' UV irradiation” value (2′-deoxyguanosine (dG) [1]; 5 ppm, Table 1, ultrapure water 0.529) of the same compound?
Answer: The value was 5.730 ng/mL.

Question: And the “concentration at which oxidation injury activity due to UV light is elevated (harmfulness increased)” value (2′-deoxyguanosine (dG) [1]; Example 1, 90 minutes UV)?
Answer: The value was 5 ppm.

Question: And the safety concentration [4]?
Answer: The safety concentration was 5 mg/kg.

Question: Which “8OHdG concentration, 90 Minutes' standing” value (2′-deoxyguanosine (dG) [1]; 0.1 μg/ml, Table 4, ultrapure water 0.195) does the source give for `OC[C@H]1O[C@H](OC[C@H]2O[C@H](O[C@]3(CO)O[C@H](CO)[C@@H](O)[C@@H]3O)[C@H](O)[C@@H](O)[C@@H]2O)[C@H](O)[C@@H](O)[C@H]1O` [Raffi, raffinose] here?
Answer: Its value is 0.205 ng/mL.

Question: And the “8OHdG concentration, UV irradiation 60 minutes” value (2′-deoxyguanosine (dG) [1]; 0.1 μg/ml, Table 4, ultrapure water 0.392)?
Answer: Its value is 0.375 ng/mL.

Question: And the “8OHdG concentration, UV irradiation 90 minutes” value (2′-deoxyguanosine (dG) [1]; 0.1 μg/ml, Table 4, ultrapure water 0.901)?
Answer: Its value is 0.689 ng/mL.

Question: What about the “8OHdG concentration, UV irradiation 120 minutes” value (2′-deoxyguanosine (dG) [1]; 0.1 μg/ml, Table 4, ultrapure water 1.183) of the same compound?
Answer: Its value is 1.127 ng/mL.

Question: And the “8OHdG concentration, 90 Minutes' standing” value (2′-deoxyguanosine (dG) [1]; 1 μg/ml, Table 4, ultrapure water 0.195)?
Answer: The value was 0.185 ng/mL.

Question: And the “8OHdG concentration, UV irradiation 60 minutes” value (2′-deoxyguanosine (dG) [1]; 1 μg/ml, Table 4, ultrapure water 0.392)?
Answer: The value was 0.304 ng/mL.

Question: What about the “8OHdG concentration, UV irradiation 90 minutes” value (2′-deoxyguanosine (dG) [1]; 1 μg/ml, Table 4, ultrapure water 0.901) of the same compound?
Answer: The value was 0.854 ng/mL.

Question: And the “8OHdG concentration, UV irradiation 120 minutes” value (2′-deoxyguanosine (dG) [1]; 1 μg/ml, Table 4, ultrapure water 1.183)?
Answer: The value was 1.049 ng/mL.

Question: What about the “8OHdG concentration, 90 Minutes' standing” value (2′-deoxyguanosine (dG) [1]; 10 μg/ml, Table 4, ultrapure water 0.195) of the same compound?
Answer: The value was 0.405 ng/mL.

Question: And the “8OHdG concentration, UV irradiation 60 minutes” value (2′-deoxyguanosine (dG) [1]; 10 μg/ml, Table 4, ultrapure water 0.392)?
Answer: Its value is 0.281 ng/mL.

Question: And the “8OHdG concentration, UV irradiation 90 minutes” value (2′-deoxyguanosine (dG) [1]; 10 μg/ml, Table 4, ultrapure water 0.901)?
Answer: Its value is 0.626 ng/mL.

Question: What about the “8OHdG concentration, UV irradiation 120 minutes” value (2′-deoxyguanosine (dG) [1]; 10 μg/ml, Table 4, ultrapure water 1.183) of the same compound?
Answer: Its value is 1.314 ng/mL.

Question: What about the “8OHdG concentration, 90 Minutes' standing” value (2′-deoxyguanosine (dG) [1]; 100 μg/ml, Table 4, ultrapure water 0.195) of the same compound?
Answer: The value was 0.455 ng/mL.

Question: And the “8OHdG concentration, UV irradiation 60 minutes” value (2′-deoxyguanosine (dG) [1]; 100 μg/ml, Table 4, ultrapure water 0.392)?
Answer: The value was 0.158 ng/mL.

Question: What about the “8OHdG concentration, UV irradiation 90 minutes” value (2′-deoxyguanosine (dG) [1]; 100 μg/ml, Table 4, ultrapure water 0.901) of the same compound?
Answer: Its value is 0.370 ng/mL.

Question: What about the “8OHdG concentration, UV irradiation 120 minutes” value (2′-deoxyguanosine (dG) [1]; 100 μg/ml, Table 4, ultrapure water 1.183) of the same compound?
Answer: Its value is 0.503 ng/mL.

Question: What about the “8OHdG concentration, 90 Minutes' standing” value (2′-deoxyguanosine (dG) [1]; 1 mg/ml, Table 4, ultrapure water 0.195) of the same compound?
Answer: Its value is 0.340 ng/mL.

Question: What about the “8OHdG concentration, UV irradiation 60 minutes” value (2′-deoxyguanosine (dG) [1]; 1 mg/ml, Table 4, ultrapure water 0.392) of the same compound?
Answer: The value was 0.115 ng/mL.

Question: What about the “8OHdG concentration, UV irradiation 90 minutes” value (2′-deoxyguanosine (dG) [1]; 1 mg/ml, Table 4, ultrapure water 0.901) of the same compound?
Answer: The value was 0.176 ng/mL.

Question: And the “8OHdG concentration, UV irradiation 120 minutes” value (2′-deoxyguanosine (dG) [1]; 1 mg/ml, Table 4, ultrapure water 1.183)?
Answer: Its value is 0.240 ng/mL.

Question: And the “concentration at which antioxidant ability is effective” value (2′-deoxyguanosine (dG) [1]; Example 4)?
Answer: The value was ≥ 10 µg/mL.

Question: And the “evaluation in words: oxidation induction or antioxidant ability toward dG” value (2′-deoxyguanosine (dG) [1])?
Answer: Its value is “Glu>Raffi≈Suc”.

Question: What about the dG (2′-deoxyguanosine (dG) [3]; 1 mg/ml) of the same compound?
Answer: Its dG is 0.926 VS.

Question: What about the “8OHdG/dG × 10^−3” value (2′-deoxyguanosine (dG) [3]; 1 mg/ml) of the same compound?
Answer: The value was 2.513 × 10^−3.

Question: And the “8OHdG × 10^−3” value (2′-deoxyguanosine (dG) [3]; 1 mg/ml)?
Answer: The value was 2.327 mVs.

Question: And the Relative initial magnification (2′-deoxyguanosine (dG) [3]; 1 mg/ml)?
Answer: The Relative initial magnification was 9.55 times.

Question: What about the dG (2′-deoxyguanosine (dG) [3]; 10 mg/ml) of the same compound?
Answer: Its dG is 1.045 VS.

Question: And the “8OHdG/dG × 10^−3” value (2′-deoxyguanosine (dG) [3]; 10 mg/ml)?
Answer: Its value is 3.137 × 10^−3.

Question: And the “8OHdG × 10^−3” value (2′-deoxyguanosine (dG) [3]; 10 mg/ml)?
Answer: Its value is 3.278 mVs.

Question: And the Relative initial magnification (2′-deoxyguanosine (dG) [3]; 10 mg/ml)?
Answer: Its Relative initial magnification is 11.93 times.

Question: Which results are given for `Cc1c(C)c2c(c(C)c1O)CC[C@@](C)(CCC[C@H](C)CCC[C@H](C)CCCC(C)C)O2` [VE, vitamin E]?
Answer: 8OHdG concentration, 90 Minutes' standing (2′-deoxyguanosine (dG) [1]; 0.0005%, Table 2, distilled water 0.15): 0.49 ng/mL; 8OHdG concentration, 90 Minutes' UV irradiation (2′-deoxyguanosine (dG) [1]; 0.0005%, Table 2, distilled water 1.23): 0.30 ng/mL; 8OHdG concentration, 90 Minutes' standing (2′-deoxyguanosine (dG) [1]; 0.005%, Table 2, distilled water 0.15): 0.45 ng/mL; 8OHdG concentration, 90 Minutes' UV irradiation (2′-deoxyguanosine (dG) [1]; 0.005%, Table 2, distilled water 1.23): 0.18 ng/mL; 8OHdG concentration, 90 Minutes' standing (2′-deoxyguanosine (dG) [1]; 0.05%, Table 2, distilled water 0.15): 0.44 ng/mL; 8OHdG concentration, 90 Minutes' UV irradiation (2′-deoxyguanosine (dG) [1]; 0.05%, Table 2, distilled water 1.23): 0.42 ng/mL; evaluation in words: oxidation induction or antioxidant ability toward dG (2′-deoxyguanosine (dG) [1]): very stable antioxidant; effect on 8OHdG with BPA and UV light irradiation (2′-deoxyguanosine (dG) [5]; Example 9): significantly inhibit the increase in 8OHdG; 8OHdG concentration, 90 Minutes' UV irradiation (2′-deoxyguanosine (dG) [5]; test substance 0.00001%, additional solution BPA (50 ppm), BPA alone 11.58): 15.43 ng/mL; 8OHdG concentration, 90 Minutes' UV irradiation (2′-deoxyguanosine (dG) [5]; test substance 0.0001%, additional solution BPA (50 ppm), BPA alone 11.58): 8.27 ng/mL; 8OHdG concentration, 90 Minutes' standing (2′-deoxyguanosine (dG) [5]; test substance 0.001%, additional solution BPA (50 ppm), BPA alone 0.22): 0.29 ng/mL; 8OHdG concentration, 90 Minutes' UV irradiation (2′-deoxyguanosine (dG) [5]; test substance 0.001%, additional solution BPA (50 ppm), BPA alone 11.58): 3.79 ng/mL; 8OHdG concentration, 90 Minutes' UV irradiation (2′-deoxyguanosine (dG) [5]; [8]): 0.28 ng/mL; 8OHdG concentration, 90 Minutes' standing (2′-deoxyguanosine (dG) [5]; [8]): 0.18 ng/mL

Source: patent US7531312B2, “Simplified biological evaluation method of natural and artificial chemicals by using DNA injury index and apparatus therefor” (TAS Project Co., Ltd., priority 2000, dated 2009)
